Test results as given in US8741932B2, “Imidazopyridine derivatives” (Piramal Enterprises Limited, priority 2009, dated 2014).

Assays:
mTOR = molecular target: T1, mTOR (Homo sapiens, UniProt P42345); experiment: mTOR activity assay (cell ELISA, Phospho-AKT Ser 473, A2780 cells); type: cell-based; settings: for inhibition at 1 µM: read-out: % Inhibition of mTOR activity at 1 μM
T1 construct: endogenous in cells; host or cells: A2780 ovarian cell line (ATCC)
Summary of the method: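 A2780 cells adhered 18-24 h, serum-starved 24 h, then stimulated with 20% FCS for 30 min alongside compound-treated sets. Fixed cells probed for phospho-AKT Ser473 by HRP/OPD cell ELISA, absorbance 490 nm. Values given as percentage or fold decrease in AKT phosphorylation relative to stimulated cells.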

STAT3 = STAT3 bioassay (Hela Stat3-luc, luciferase); type: cell-based; settings: Homo sapiens, Oncostatin M induction
Summary of the method: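 Hela Stat3-luc cells (20,000/well, 24 h) pretreated with compound 1 h, then induced with 100 ng/ml final Oncostatin M for 7-8 h at 37 °C. Luciferase luminescence after lysis; percent inhibition versus induction control, IC50 from these percentages.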

PI3Kα kinase = molecular target: T2, PI3Kα kinase (Homo sapiens, UniProt P42336); experiment: Kinase assay (PI3Kα); type: biochemical; settings: read-out: IC50 (μM) for PI3K inhibition
T2 construct: purchased Millipore, USA
Summary of the method: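 Recombinant PI3Kα (20 ng) phosphorylated 12.5 μg phosphatidylinositol with 10 μM ATP and 1 μCi ^32γ P […] in 10 mM Hepes pH 7.5, 50 mM MgCl2 for 20 min at 30° C. Lipids were extracted with MeOH/CHCl3, resolved by TLC, and labelled PI quantified by autoradiography densitometry; PI-103 served as standard.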

T2 sequence (P42336 whole entry): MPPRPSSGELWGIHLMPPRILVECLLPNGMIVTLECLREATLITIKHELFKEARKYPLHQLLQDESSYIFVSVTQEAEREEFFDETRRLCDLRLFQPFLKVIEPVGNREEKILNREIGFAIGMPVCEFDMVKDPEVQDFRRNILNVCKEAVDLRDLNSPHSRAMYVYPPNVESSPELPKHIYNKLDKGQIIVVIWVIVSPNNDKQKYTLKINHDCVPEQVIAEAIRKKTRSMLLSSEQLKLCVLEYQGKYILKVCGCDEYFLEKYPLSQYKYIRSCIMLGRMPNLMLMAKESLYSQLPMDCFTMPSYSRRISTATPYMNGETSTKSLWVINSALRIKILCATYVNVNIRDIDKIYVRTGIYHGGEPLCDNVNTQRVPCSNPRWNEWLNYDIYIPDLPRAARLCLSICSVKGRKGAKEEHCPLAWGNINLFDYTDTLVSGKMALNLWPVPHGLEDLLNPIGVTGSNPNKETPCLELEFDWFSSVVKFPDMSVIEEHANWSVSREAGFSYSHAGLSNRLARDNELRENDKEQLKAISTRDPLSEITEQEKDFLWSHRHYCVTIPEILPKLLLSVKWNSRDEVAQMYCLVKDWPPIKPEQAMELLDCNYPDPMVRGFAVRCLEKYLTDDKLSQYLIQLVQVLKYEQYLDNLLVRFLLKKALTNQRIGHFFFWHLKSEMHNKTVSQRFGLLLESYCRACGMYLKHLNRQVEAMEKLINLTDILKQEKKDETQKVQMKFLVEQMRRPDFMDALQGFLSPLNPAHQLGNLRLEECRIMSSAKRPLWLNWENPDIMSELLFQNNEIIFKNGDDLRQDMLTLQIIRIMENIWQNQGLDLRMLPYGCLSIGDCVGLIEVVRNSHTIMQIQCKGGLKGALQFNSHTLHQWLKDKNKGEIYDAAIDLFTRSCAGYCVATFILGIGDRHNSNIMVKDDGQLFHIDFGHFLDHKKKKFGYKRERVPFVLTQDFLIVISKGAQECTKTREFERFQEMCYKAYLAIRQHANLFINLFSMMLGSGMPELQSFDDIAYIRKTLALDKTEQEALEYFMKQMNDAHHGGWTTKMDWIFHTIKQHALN
T2 sequence (P27986 whole entry partner): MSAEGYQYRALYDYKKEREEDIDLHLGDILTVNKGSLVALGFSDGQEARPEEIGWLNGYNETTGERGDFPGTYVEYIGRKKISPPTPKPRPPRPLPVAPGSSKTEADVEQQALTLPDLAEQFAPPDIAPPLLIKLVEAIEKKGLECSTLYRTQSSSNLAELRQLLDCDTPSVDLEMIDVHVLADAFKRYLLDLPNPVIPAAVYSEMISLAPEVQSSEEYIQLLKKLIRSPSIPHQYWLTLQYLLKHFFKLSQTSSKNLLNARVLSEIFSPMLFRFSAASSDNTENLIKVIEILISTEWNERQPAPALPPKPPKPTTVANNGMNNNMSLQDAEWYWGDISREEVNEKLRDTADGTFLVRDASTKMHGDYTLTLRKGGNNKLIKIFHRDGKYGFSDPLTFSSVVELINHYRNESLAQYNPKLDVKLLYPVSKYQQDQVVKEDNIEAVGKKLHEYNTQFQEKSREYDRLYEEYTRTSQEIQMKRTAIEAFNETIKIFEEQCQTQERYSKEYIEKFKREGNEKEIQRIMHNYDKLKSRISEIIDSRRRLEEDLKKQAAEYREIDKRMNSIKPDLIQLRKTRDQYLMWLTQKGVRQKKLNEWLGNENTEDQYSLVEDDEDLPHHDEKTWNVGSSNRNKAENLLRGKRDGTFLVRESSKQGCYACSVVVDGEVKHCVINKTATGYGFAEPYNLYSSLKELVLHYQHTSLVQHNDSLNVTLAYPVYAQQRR

Compound	IC50 (mTOR)	IC50 (STAT3)	IC50 (PI3Kα kinase)	inhibition at 1 µM (mTOR)
CN(N=Cc1cnc2ccc(-c3cccnc3)cn12)S(=O)(=O)c1cccc(F)c1 [Example 5, 3-Fluoro-N-methyl-N′-((6-(pyridine-3-yl)imidazo[1,2-a]pyridine-3-yl)methylene)benzenesulfonohydrazide]	1 to 5 µM	0.1 to 5 µM	0.5 to 1 µM	–
CN(N=Cc1cnc2ccc(-c3cccnc3)cn12)S(=O)(=O)c1ccc(F)cc1 [Example 6, 4-Fluoro-N-methyl-N′-((6-(pyridine-3-yl)imidazo[1,2-a]pyridine-3-yl)methylene)benzenesulfonohydrazide]	–	5 to 10 µM	0.5 to 1 µM	30 to 50%
CN(N=Cc1cnc2ccc(-c3cccnc3)cn12)S(=O)(=O)c1cc(F)cc(F)c1 [Example 16, 3,5-Difluoro-N-methyl-N′-((6-(pyridine-3-yl)imidazo[1,2-a]pyridine-3-yl)methylene) benzenesulfonohydrazide]	–	5 to 10 µM	0.5 to 1 µM	30 to 50%
Cc1ccc(F)cc1S(=O)(=O)N(C)N=Cc1cnc2ccc(-c3cccnc3)cn12 [Example 21, 5-Fluoro-N, 2-dimethyl-N′-((6-(pyridine-3-yl)imidazo[1,2-a]pyridine-3-yl)methylene) benzenesulfonohydrazide]	1 to 5 µM	5 to 10 µM	0.01 to 0.5 µM	–
Cc1ccc([N+](=O)[O-])cc1S(=O)(=O)N(C)N=Cc1cnc2ccc(-c3cccnc3)cn12 [Example 25]	1 to 5 µM	0.1 to 5 µM	0.01 to 0.5 µM	–
